Structures can show the parent of a compound that is named as a salt.
These compounds were tested against CRBN/DDB1 (Homo sapiens, UniProt Q96SW2) (assay: biochemical).
Sequence of CRBN/DDB1 (Q96SW2 whole entry): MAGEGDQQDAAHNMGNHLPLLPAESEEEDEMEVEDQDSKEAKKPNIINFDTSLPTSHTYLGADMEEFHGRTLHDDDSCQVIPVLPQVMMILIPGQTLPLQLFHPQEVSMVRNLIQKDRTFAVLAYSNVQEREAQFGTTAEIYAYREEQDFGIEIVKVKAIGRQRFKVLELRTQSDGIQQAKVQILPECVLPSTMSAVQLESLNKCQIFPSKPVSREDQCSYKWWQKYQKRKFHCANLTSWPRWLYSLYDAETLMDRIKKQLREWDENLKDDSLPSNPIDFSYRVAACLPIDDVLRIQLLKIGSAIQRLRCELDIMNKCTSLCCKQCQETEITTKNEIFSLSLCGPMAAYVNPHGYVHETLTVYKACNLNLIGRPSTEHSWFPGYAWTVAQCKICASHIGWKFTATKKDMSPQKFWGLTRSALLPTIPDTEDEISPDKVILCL
Sequence of CRBN/DDB1 (Q16531 whole entry partner): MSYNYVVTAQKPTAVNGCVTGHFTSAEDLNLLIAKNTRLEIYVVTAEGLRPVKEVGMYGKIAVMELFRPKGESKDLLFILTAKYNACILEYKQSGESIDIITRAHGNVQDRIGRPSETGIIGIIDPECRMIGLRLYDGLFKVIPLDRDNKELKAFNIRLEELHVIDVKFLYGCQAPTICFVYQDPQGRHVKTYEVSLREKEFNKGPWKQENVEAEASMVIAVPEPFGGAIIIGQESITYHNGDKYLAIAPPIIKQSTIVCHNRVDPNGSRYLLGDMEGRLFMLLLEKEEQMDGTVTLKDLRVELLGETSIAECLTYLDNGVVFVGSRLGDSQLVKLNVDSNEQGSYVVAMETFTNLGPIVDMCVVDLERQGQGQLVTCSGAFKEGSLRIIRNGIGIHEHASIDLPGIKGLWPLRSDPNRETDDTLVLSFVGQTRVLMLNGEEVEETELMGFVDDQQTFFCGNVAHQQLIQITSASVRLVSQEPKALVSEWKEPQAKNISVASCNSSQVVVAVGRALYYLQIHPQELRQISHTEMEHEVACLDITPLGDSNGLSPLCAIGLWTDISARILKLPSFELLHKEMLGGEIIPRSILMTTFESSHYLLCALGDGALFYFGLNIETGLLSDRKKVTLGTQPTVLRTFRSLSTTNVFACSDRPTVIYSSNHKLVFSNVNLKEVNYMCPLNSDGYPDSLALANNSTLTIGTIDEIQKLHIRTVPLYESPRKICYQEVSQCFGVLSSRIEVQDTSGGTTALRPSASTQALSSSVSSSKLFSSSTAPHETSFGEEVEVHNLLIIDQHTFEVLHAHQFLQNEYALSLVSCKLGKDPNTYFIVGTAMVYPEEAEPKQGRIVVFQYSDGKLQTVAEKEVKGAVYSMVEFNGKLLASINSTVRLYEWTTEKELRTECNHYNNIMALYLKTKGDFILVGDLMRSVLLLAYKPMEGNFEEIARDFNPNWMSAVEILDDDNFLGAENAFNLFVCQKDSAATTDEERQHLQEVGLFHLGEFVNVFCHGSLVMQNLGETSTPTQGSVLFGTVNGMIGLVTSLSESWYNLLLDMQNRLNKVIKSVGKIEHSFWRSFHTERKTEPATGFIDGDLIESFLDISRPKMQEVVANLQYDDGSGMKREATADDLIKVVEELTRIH

Row | Compound | IC50 [nM]
1 | O=C1CC[C@H](Nc2ccc([C@@]34CCNC[C@@H]3C4(F)F)cc2)C(=O)N1 (single isomer, unassigned) [Compound 1] | 500 to 5000
2 | O=C1CC[C@@H](Nc2ccc([C@@]34CCNC[C@@H]3C4(F)F)cc2)C(=O)N1 (single isomer, unassigned) [Compound 2] | 500 to 5000
3 | O=C1CCC(Nc2ccc3c(c2)OCC32CCNCC2)C(=O)N1 (stereo in doubt) [Compound 11, (R)-3-((2H-spiro[benzofuran-3,4′-piperidin]-6-yl)amino)piperidine-2,6-dione] | 50 to 500
4 | O=C1CCC(Nc2ccc3c(c2)OCC32CCNCC2)C(=O)N1 (stereo in doubt) [Compound 12, (S)-3-((2H-spiro[benzofuran-3,4′-piperidin]-6-yl)amino)piperidine-2,6-dione] | 500 to 5000
5 | O=C1CC[C@@H](Nc2ccc([C@]34CCNC[C@H]3C4(F)F)cc2)C(=O)N1 [Compound 3, (R)-3-((4-((1S,6S)-7,7-difluoro-3-azabicyclo[4.1.0]heptan-6-yl)phenyl)amino)piperidine-2,6-dione] | 500 to 5000
6 | O=C1CC[C@H](Nc2ccc([C@]34CCNC[C@H]3C4(F)F)cc2)C(=O)N1 [Compound 4, (S)-3-((4-((1S,6S)-7,7-difluoro-3-azabicyclo[4.1.0]heptan-6-yl)phenyl)amino)piperidine-2,6-dione] | 500 to 5000
7 | O=C1CC[C@@H](Oc2ccc3c(c2)OCC32CCNCC2)C(=O)N1 [Compound 5, (R)-3-((2H-spiro[benzofuran-3,4′-piperidin]-6-yl)oxy)piperidine-2,6-dione] | 500 to 5000
8 | O=C1CC[C@H](Oc2ccc3c(c2)OCC32CCNCC2)C(=O)N1 [Compound 6, (S)-3-((2H-spiro[benzofuran-3,4′-piperidin]-6-yl)oxy)piperidine-2,6-dione] | 500 to 5000
9 | Cc1cc([C@@]23CCNC[C@@H]2C3(F)F)ccc1N[C@@H]1CCC(=O)NC1=O [Compound 7, (R)-3-((4-((1R,6R)-7,7-difluoro-3-azabicyclo[4.1.0]heptan-6-yl)-2-methylphenyl)amino)piperidine-2,6-dione] | > 5000
10 | Cc1cc([C@]23CCNC[C@H]2C3(F)F)ccc1N[C@@H]1CCC(=O)NC1=O [Compound 9, (R)-3-((4-((1S,6S)-7,7-difluoro-3-azabicyclo[4.1.0]heptan-6-yl)-2-methylphenyl)amino)piperidine-2,6-dione] | 500 to 5000
11 | Cc1cc([C@]23CCNC[C@H]2C3(F)F)ccc1N[C@H]1CCC(=O)NC1=O [Compound 10, (S)-3-((4-((1S,6S)-7,7-difluoro-3-azabicyclo[4.1.0]heptan-6-yl)-2-methylphenyl)amino)piperidine-2,6-dione] | > 5000
12 | O=C1CCC(Nc2ccc3c(c2)OCC32CCNCC2(F)F)C(=O)N1 (centres unmarked) [Compound 16, 3-((3′,3′-difluoro-2H-spiro[benzofuran-3,4′-piperidin]-6-yl)amino)piperidine-2,6-dione] | 500 to 5000

More lines, now with the values ahead:

Row | IC50 [nM] | Compound
13 | 500 to 5000 | Cc1cc([C@@]23CCNC[C@@H]2C3(F)F)ccc1N[C@H]1CCC(=O)NC1=O [Compound 8, (S)-3-((4-((1R,6R)-7,7-difluoro-3-azabicyclo[4.1.0]heptan-6-yl)-2-methylphenyl)amino)piperidine-2,6-dione]
14 | 500 to 5000 | O=C1CCC(Nc2ccc3c(c2)COC32CCNCC2)C(=O)N1 (centres unmarked) [Compound 15, 3-((3H-spiro[isobenzofuran-1,4′-piperidin]-5-yl)amino)piperidine-2,6-dione HCO2H salt]
15 | 500 to 5000 | O=C1CCC2(CC1)COc1cc(NC3CCC(=O)NC3=O)ccc12 (centres unmarked) [Compound 17, 3-((4′-oxo-2H-spiro[benzofuran-3,1′-cyclohexan]-6-yl)amino)piperidine-2,6-dione]
16 | 500 to 5000 | O=C1CCC(Nc2cc3c(cc2F)C2(CCNCC2)CO3)C(=O)N1 (centres unmarked) [Compound 18, 3-((5-fluoro-2H-spiro[benzofuran-3,4′-piperidin]-6-yl)amino)piperidine-2,6-dione HCl salt]
17 | 50 to 500 | O=C1CCC(Nc2cc(F)c3c(c2)OCC32CCNCC2)C(=O)N1 (centres unmarked) [Compound 19, 3-((4-fluoro-2H-spiro[benzofuran-3,4′-piperidin]-6-yl)amino)piperidine-2,6-dione HCl salt]

— US20260317298A1, “Cereblon Ligands and Uses Thereof” (REGENTS OF THE UNIVERSITY OF MICHIGAN, priority 2022, published 2026)
